Experimental data reported in article PMC5824344 (ACS Chemical Biology, 2017).

What was measured:
[1] = molecular target: T1, Rat intestinal cellobiase (Rattus norvegicus, UniProt Q02401); experiment: Inhibition of rat intestinal cellobiase (β-glucosidase; natural substrate, glucose release); type: biochemical; settings: read-out: inhibition of intestinal cellobiase at the maximum tested concentration
T1 sequence (Q02401 868-1928): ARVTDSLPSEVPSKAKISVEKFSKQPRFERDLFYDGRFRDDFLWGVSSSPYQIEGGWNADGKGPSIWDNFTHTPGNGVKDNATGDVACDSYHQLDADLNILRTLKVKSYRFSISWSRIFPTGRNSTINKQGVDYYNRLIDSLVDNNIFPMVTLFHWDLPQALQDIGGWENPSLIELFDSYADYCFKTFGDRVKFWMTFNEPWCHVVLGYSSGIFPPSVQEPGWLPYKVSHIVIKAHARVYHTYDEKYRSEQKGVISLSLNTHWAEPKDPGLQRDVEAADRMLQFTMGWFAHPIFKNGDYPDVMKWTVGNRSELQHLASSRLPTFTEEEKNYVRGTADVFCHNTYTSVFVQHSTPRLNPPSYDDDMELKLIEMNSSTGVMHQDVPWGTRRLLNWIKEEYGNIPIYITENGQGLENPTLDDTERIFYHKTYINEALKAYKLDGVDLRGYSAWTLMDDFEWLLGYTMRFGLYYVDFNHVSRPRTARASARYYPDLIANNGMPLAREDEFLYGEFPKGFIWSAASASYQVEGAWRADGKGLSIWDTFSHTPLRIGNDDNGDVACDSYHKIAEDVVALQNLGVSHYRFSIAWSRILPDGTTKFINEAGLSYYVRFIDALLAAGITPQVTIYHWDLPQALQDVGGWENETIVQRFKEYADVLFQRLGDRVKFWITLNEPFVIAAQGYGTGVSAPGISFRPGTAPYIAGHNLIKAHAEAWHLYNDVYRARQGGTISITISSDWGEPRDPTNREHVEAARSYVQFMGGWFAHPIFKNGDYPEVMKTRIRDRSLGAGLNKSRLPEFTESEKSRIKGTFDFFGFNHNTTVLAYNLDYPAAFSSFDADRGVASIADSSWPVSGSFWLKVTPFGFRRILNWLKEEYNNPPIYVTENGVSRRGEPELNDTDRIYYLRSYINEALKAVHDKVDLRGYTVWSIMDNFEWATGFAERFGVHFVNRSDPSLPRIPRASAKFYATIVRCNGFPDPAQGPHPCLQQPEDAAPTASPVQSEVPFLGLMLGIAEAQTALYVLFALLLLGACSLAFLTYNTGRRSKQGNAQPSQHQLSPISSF

[2] = tested on: GluI and GluII in Jurkat (T lymphocyte) cells; experiment: Free oligosaccharide (FOS) assay in Jurkat cells; type: cell-based, human; settings: 48 h, 50 µm
Method: 5 Cell and Virus Culture and Assays
5.1 Culture of Cell Lines
The human hepatoma cell line Huh7.5 (Apath, LLC) was cultured in Dulbecco’s modiﬁed Eagle medium (DMEM) with Glutamax (Gibco) supplemented with 100 µg mL−1 strepto-mycin (Sigma), 100 U mL−1 penicillin (Sigma), 100 µm MEM non-essential amino acids (Gibco) and 10% (volume/volume, v/v) heat-inactivated (56 ◦C, 30 min) fetal calf serum (FCS, Seralab). The human monocytic cell line HL60 (ATCC), human T lymphocyte cell line Jurkat (ATCC), and human B lymphocyte cell line Raji (ATCC) were each maintained in RPMI 1640 media with Glutamax (Gibco) supplemented with 100 µg mL−1 streptomycin, 100 U mL−1 penicillin and 10% (v/v) FCS. […]
Cell viability was measured using the CellTiter 96 R© AQueous One Solution Cell Prolifera-tion MTA (3-(4,5-dimethylthiazol-2-yl)-5-(3-carboxymethoxyphenyl)-2-(4-sulfophenyl)-2H - […]
After a further one to two hour incubation, the absorbance at 490 nm was measured on a Molecular Devices SpectraMax M5 microplate reader. […]
Absorbances were averaged across replicates, and corrected for background by subtracting the value for media-only wells. Each drug treatment was then evaluated as a percentage of untreated cells. […]
FOS analysis was carried out as described previously. […] Before purifying the FOS, each sample was analyzed for protein content using the modiﬁed Bradford assay. […]

In the case of `Cc1c(C)c2c(c(C)c1OCCCCCN1CC(O)C(O)C(O)C1CO)CCC(C)(CCCC(C)CCCC(C)CCCC(C)C)O2` (stereo not drawn) [Compound 4, 5′-tocopheroxypentyl-DNJ], the inhibition at 50 µM [1] is reported as less than 50%, the “glucosylated free oligosaccharides (FOS) observed after treatment” value [2] is reported as “not in Jurkat” and the “glucosylated free oligosaccharides (FOS) observed after treatment” value ([2]; listed as ToP-DNJ 4) is reported as “no glucosylated FOS were detected”.
